# Experimental data taken from patent publication US12128030B2, “Pharmaceutical composition comprising antiplatelet agent and gastric acid secretion inhibitor” (HK INNO.N CORPORATION, priority 2018, dated 2024).
# Assays:
# [1] = clopidogrel in direct contact with compound of Formula 1; 40° C./RH 75%, four weeks
# Method: A test on blending compatibility with additives was performed in a state, in which clopidogrel was alone and mixed with a compound of Formula 1.
# A ratio of additives to main component was adjusted, after which a change of contents and related substances was evaluated under accelerated test conditions (40° C./RH 75%) for four weeks, such that the results thereof are shown in FIGS. 3 to 5.
# [2] = Evaluation test on pharmacokinetic drug interactions through nonclinical models; format: in vivo; details: beagle dogs; combined administration with clopidogrel
# Method: To determine the effect of esomeprazole (PPI drug) and a compound of Formula 1 on a medicinal effect of clopidogrel, a test on pharmacokinetic drug interactions was performed in such a way that 20 mg of clopidogrel and 20 mg of esomeprazole or 50 mg of the compound of Formula 1 were administered in combination into beagle dogs once or repeatedly (for seven days).
# Particularly, clopidogrel was repeatedly administered into ten beagle dogs for seven days, after which esomeprazole and the compound of Formula 1 were administered in combination into those beagle dogs at steady-state for seven days, such that blood was collected therefrom on 5th, 8th and 14th days, to perform a pharmacokinetic analysis before and after the administration.
# FIGS. 1 and 2 are graphs of showing a concentration of clopidogrel active metabolites in blood, which was measured after administering esomeprazole and the compound of Formula 1 in combination, respectively.
SMILES,stability of drug (contents and related substances) [1],risk of drug interactions with clopidogrel [2]
"COC(=O)[C@H](c1ccccc1Cl)N1CCc2sccc2C1 [clopidogrel, methyl (+)-(S)-α-(2-chlorophenyl)-6,7-dihydrothieno[3,2-c]pyridine-5(4H)-acetate]",stability of a drug deteriorates,–
"Cc1nc2c(O[C@H]3CCOc4cc(F)cc(F)c43)cc(C(=O)N(C)C)cc2[nH]1 [compound of Formula 1, (S)-4-[(5,7-difluoro-3,4-dihydro-2H-chromene-4-yl)oxy]-N,N,2-trimethyl-1H-benzimidazole-6-carboxamide]",–,low risk of drug interactions
